Experimental data: paper PMC9202851, “Antitubercular activity assessment of fluorinated chalcones, 2-aminopyridine-3-carbonitrile and 2-amino-4H-pyran-3-carbonitrile derivatives: In vitro, molecular docking and in-silico drug likeliness studies” (PLoS ONE, 2022)
Values after ≈ are worked out from the molar mass of the structure shown.

test system: Mycobacterium tuberculosis H37RV; assay: In vitro antitubercular activity by MABA (Alamar Blue); format: cell-based; settings: Mycobacterium tuberculosis H37RV, MABA, Middlebrook 7H9 broth, 37°C five days

Compound | H37RV MIC
N#Cc1c(-c2c[nH]c3ccccc23)cc(-c2ccc(OC(F)(F)F)cc2)nc1N [Compound 40] | ~ 8 µM

same assay, conditions: Mycobacterium tuberculosis H37RV, MABA, Middlebrook 7H9 broth, 37°C five days; read-out: H37RV MIC

Compound | MIC
O=C(O)c1cn(C2CC2)c2cc(N3CCNCC3)c(F)cc2c1=O [Ciprofloxacin, reference compound] | 9 µM (≈ 2.98 µg/mL)
N#Cc1c(-c2cccs2)cc(-c2ccc(C(F)(F)F)cc2)nc1N [Compound 26] | 33 µM (≈ 11.4 µg/mL)
N#Cc1c(-c2cccs2)cc(-c2ccc(C(F)(F)F)cc2)nc1N [Compound 27] | 18 µM (≈ 6.22 µg/mL)
N#Cc1c(-c2ccc[nH]2)cc(-c2ccc(C(F)(F)F)cc2)nc1N [Compound 30] | 17 µM (≈ 5.58 µg/mL)
N#Cc1c(-c2c[nH]c3ccccc23)cc(-c2ccc(OC(F)(F)F)cc2)nc1N [Compound 33] | 30 µM (≈ 11.8 µg/mL)
N#Cc1c(-c2cccs2)cc(-c2ccc(OC(F)(F)F)cc2)nc1N [Compound 36] | 31 µM (≈ 11.2 µg/mL)
N#Cc1c(-c2c[nH]c3ccccc23)cc(-c2ccc(OC(F)(F)F)cc2)nc1N [Compound 40] | 8 µM (≈ 3.15 µg/mL)
N#CC1=C(N)OC(c2ccc(C(F)(F)F)cc2)=CC1c1ccccc1Cl (centres unmarked) [Compound 41] | 17 µM (≈ 6.41 µg/mL)
N#CC1=C(N)OC(c2ccc(C(F)(F)F)cc2)=CC1c1ccc[nH]1 (centres unmarked) [Compound 50] | 16 µM (≈ 5.3 µg/mL)
N#CC1=C(N)OC(c2ccc(OC(F)(F)F)cc2)=CC1c1cccc(Cl)c1Cl (centres unmarked) [Compound 51] | 16 µM (≈ 6.84 µg/mL)
N#CC1=C(N)OC(c2ccc(OC(F)(F)F)cc2)=CC1c1ccc[nH]1 (centres unmarked) [Compound 60] | 16 µM (≈ 5.56 µg/mL)
NC(=O)c1cnccn1 [Pyrazinamide, reference compound] | 25 µM (≈ 3.08 µg/mL)
[H]/N=C(/N)N[C@H]1[C@H](O)[C@@H](O)[C@H](O[C@@H]2O[C@@H](C)[C@](O)(C=O)[C@H]2O[C@@H]2O[C@@H](CO)[C@H](O)[C@@H](O)[C@@H]2NC)[C@@H](N/C(N)=N\[H])[C@@H]1O [Streptomycin, reference compound] | 11 µM (≈ 6.4 µg/mL)

same assay, conditions: Mycobacterium tuberculosis, H37RV, 120 h, Mycobacterium tuberculosis H37RV, MABA, Middlebrook 7H9 broth, 37°C five days; read-out: H37RV MIC

Compound | MIC
O=C(O)c1cn(C2CC2)c2cc(N3CCNCC3)c(F)cc2c1=O [Ciprofloxacin, reference compound] | ~9 µM (≈ 2.98 µg/mL)
O=C(/C=C/c1ccccc1Cl)c1ccc(C(F)(F)F)cc1 [Compound 1] | 40 µM (≈ 12.4 µg/mL)
O=C(/C=C/c1cccc(Cl)c1)c1ccc(C(F)(F)F)cc1 [Compound 2] | 161 µM (≈ 50 µg/mL)
O=C(/C=C/c1c[nH]c2ccccc12)c1ccc(C(F)(F)F)cc1 [Compound 3] | 145 µM (≈ 45.7 µg/mL)
O=C(/C=C/c1ccccc1[N+](=O)[O-])c1ccc(C(F)(F)F)cc1 [Compound 4] | 156 µM (≈ 50.1 µg/mL)
O=C(/C=C/c1cccc([N+](=O)[O-])c1)c1ccc(C(F)(F)F)cc1 [Compound 5] | 155 µM (≈ 49.8 µg/mL)
O=C(/C=C/c1cccs1)c1ccc(C(F)(F)F)cc1 [Compound 6] | 156 µM (≈ 44 µg/mL)
O=C(/C=C/c1ccc(Cl)cc1)c1ccc(C(F)(F)F)cc1 [Compound 8] | 188 µM (≈ 58.4 µg/mL)
O=C(/C=C/c1ccc([N+](=O)[O-])cc1)c1ccc(C(F)(F)F)cc1 [Compound 9] | 189 µM (≈ 60.7 µg/mL)
O=C(/C=C/c1ccc[nH]1)c1ccc(C(F)(F)F)cc1 [Compound 10] | 40 µM (≈ 10.6 µg/mL)
O=C(/C=C/c1cccc(Cl)c1Cl)c1ccc(OC(F)(F)F)cc1 [Compound 11] | 153 µM (≈ 55.3 µg/mL)
O=C(/C=C/c1cccc(Cl)c1)c1ccc(OC(F)(F)F)cc1 [Compound 12] | 153 µM (≈ 50 µg/mL)
O=C(/C=C/c1c[nH]c2ccccc12)c1ccc(OC(F)(F)F)cc1 [Compound 13] | 138 µM (≈ 45.7 µg/mL)
O=C(/C=C/c1ccccc1[N+](=O)[O-])c1ccc(OC(F)(F)F)cc1 [Compound 14] | 148 µM (≈ 49.9 µg/mL)
O=C(/C=C/c1cccc([N+](=O)[O-])c1)c1ccc(OC(F)(F)F)cc1 [Compound 15] | 148 µM (≈ 49.9 µg/mL)
O=C(/C=C/c1cccs1)c1ccc(OC(F)(F)F)cc1 [Compound 16] | 148 µM (≈ 44.1 µg/mL)
O=C(/C=C/c1ccco1)c1ccc(OC(F)(F)F)cc1 [Compound 17] | 168 µM (≈ 47.4 µg/mL)
O=C(/C=C/c1ccc(Cl)cc1)c1ccc(OC(F)(F)F)cc1 [Compound 18] | 177 µM (≈ 57.8 µg/mL)
O=C(/C=C/c1ccc([N+](=O)[O-])cc1)c1ccc(OC(F)(F)F)cc1 [Compound 19] | 178 µM (≈ 60 µg/mL)

Compound | MIC
O=C(/C=C/c1ccc[nH]1)c1ccc(OC(F)(F)F)cc1 [Compound 20] | 38 µM (≈ 10.7 µg/mL)
N#Cc1c(-c2cccc(Cl)c2Cl)cc(-c2ccc(C(F)(F)F)cc2)nc1N [Compound 21] | 33 µM (≈ 13.5 µg/mL)
N#Cc1c(-c2cccc(Cl)c2)cc(-c2ccc(C(F)(F)F)cc2)nc1N [Compound 22] | 134 µM (≈ 50.1 µg/mL)
N#Cc1c(-c2c[nH]c3ccccc23)cc(-c2ccc(C(F)(F)F)cc2)nc1N [Compound 23] | 31 µM (≈ 11.7 µg/mL)
N#Cc1c(-c2ccccc2[N+](=O)[O-])cc(-c2ccc(C(F)(F)F)cc2)nc1N [Compound 24] | 33 µM (≈ 12.7 µg/mL)
N#Cc1c(-c2cccc([N+](=O)[O-])c2)cc(-c2ccc(C(F)(F)F)cc2)nc1N [Compound 25] | 130 µM (≈ 50 µg/mL)
N#Cc1c(-c2ccc(Cl)cc2)cc(-c2ccc(C(F)(F)F)cc2)nc1N [Compound 28] | 38 µM (≈ 14.2 µg/mL)
N#Cc1c(-c2ccc([N+](=O)[O-])cc2)cc(-c2ccc(C(F)(F)F)cc2)nc1N [Compound 29] | 152 µM (≈ 58.4 µg/mL)
N#Cc1c(-c2ccc[nH]2)cc(-c2ccc(C(F)(F)F)cc2)nc1N [Compound 30] | 16 to 18 µM (≈ 5.25 to 5.91 µg/mL)
N#Cc1c(-c2cccc(Cl)c2Cl)cc(-c2ccc(OC(F)(F)F)cc2)nc1N [Compound 31] | 32 µM (≈ 13.6 µg/mL)
N#Cc1c(-c2cccc(Cl)c2)cc(-c2ccc(OC(F)(F)F)cc2)nc1N [Compound 32] | 128 µM (≈ 49.9 µg/mL)
N#Cc1c(-c2ccccc2[N+](=O)[O-])cc(-c2ccc(OC(F)(F)F)cc2)nc1N [Compound 34] | 31 µM (≈ 12.4 µg/mL)
N#Cc1c(-c2cccc([N+](=O)[O-])c2)cc(-c2ccc(OC(F)(F)F)cc2)nc1N [Compound 35] | 125 µM (≈ 50 µg/mL)
N#Cc1c(-c2cccs2)cc(-c2ccc(OC(F)(F)F)cc2)nc1N [Compound 37] | 17 µM (≈ 6.14 µg/mL)
N#Cc1c(-c2ccc(Cl)cc2)cc(-c2ccc(OC(F)(F)F)cc2)nc1N [Compound 38] | 36 µM (≈ 14 µg/mL)
N#Cc1c(-c2ccc([N+](=O)[O-])cc2)cc(-c2ccc(OC(F)(F)F)cc2)nc1N [Compound 39] | 145 µM (≈ 58 µg/mL)
N#CC1=C(N)OC(c2ccc(C(F)(F)F)cc2)=CC1c1ccccc1Cl (centres unmarked) [Compound 41] | 16 to 18 µM (≈ 6.03 to 6.78 µg/mL)
N#CC1=C(N)OC(c2ccc(C(F)(F)F)cc2)=CC1c1cccc(Cl)c1 (centres unmarked) [Compound 42] | 133 µM (≈ 50.1 µg/mL)
N#CC1=C(N)OC(c2ccc(C(F)(F)F)cc2)=CC1c1c[nH]c2ccccc12 (centres unmarked) [Compound 43] | 30 µM (≈ 11.4 µg/mL)

Compound | MIC
N#CC1=C(N)OC(c2ccc(C(F)(F)F)cc2)=CC1c1ccccc1[N+](=O)[O-] (centres unmarked) [Compound 44] | 32 µM (≈ 12.4 µg/mL)
N#CC1=C(N)OC(c2ccc(C(F)(F)F)cc2)=CC1c1cccc([N+](=O)[O-])c1 (centres unmarked) [Compound 45] | 129 µM (≈ 50 µg/mL)
N#CC1=C(N)OC(c2ccc(C(F)(F)F)cc2)=CC1c1cccs1 (centres unmarked) [Compound 46] | 32 µM (≈ 11.1 µg/mL)
N#CC1=C(N)OC(c2ccc(C(F)(F)F)cc2)=CC1c1ccco1 (centres unmarked) [Compound 47] | 36 µM (≈ 12 µg/mL)
N#CC1=C(N)OC(c2ccc(C(F)(F)F)cc2)=CC1c1ccc(Cl)cc1 (centres unmarked) [Compound 48] | 38 µM (≈ 14.3 µg/mL)
N#CC1=C(N)OC(c2ccc(C(F)(F)F)cc2)=CC1c1ccc([N+](=O)[O-])cc1 (centres unmarked) [Compound 49] | 151 µM (≈ 58.5 µg/mL)
N#CC1=C(N)OC(c2ccc(C(F)(F)F)cc2)=CC1c1ccc[nH]1 (centres unmarked) [Compound 50] | 16 to 18 µM (≈ 5.3 to 5.96 µg/mL)
N#CC1=C(N)OC(c2ccc(OC(F)(F)F)cc2)=CC1c1cccc(Cl)c1Cl (centres unmarked) [Compound 51] | 16 to 18 µM (≈ 6.84 to 7.69 µg/mL)
N#CC1=C(N)OC(c2ccc(OC(F)(F)F)cc2)=CC1c1cccc(Cl)c1 (centres unmarked) [Compound 52] | 127 µM (≈ 49.9 µg/mL)
N#CC1=C(N)OC(c2ccc(OC(F)(F)F)cc2)=CC1c1c[nH]c2ccccc12 (centres unmarked) [Compound 53] | 29 µM (≈ 11.5 µg/mL)
N#CC1=C(N)OC(c2ccc(OC(F)(F)F)cc2)=CC1c1ccccc1[N+](=O)[O-] (centres unmarked) [Compound 54] | 31 µM (≈ 12.5 µg/mL)
N#CC1=C(N)OC(c2ccc(OC(F)(F)F)cc2)=CC1c1cccc([N+](=O)[O-])c1 (centres unmarked) [Compound 55] | 124 µM (≈ 50 µg/mL)
N#CC1=C(N)OC(c2ccc(OC(F)(F)F)cc2)=CC1c1cccs1 (centres unmarked) [Compound 56] | 31 µM (≈ 11.3 µg/mL)
N#CC1=C(N)OC(c2ccc(OC(F)(F)F)cc2)=CC1c1ccco1 (centres unmarked) [Compound 57] | 34 µM (≈ 11.8 µg/mL)
N#CC1=C(N)OC(c2ccc(OC(F)(F)F)cc2)=CC1c1ccc(Cl)cc1 (centres unmarked) [Compound 58] | 36 µM (≈ 14.1 µg/mL)
N#CC1=C(N)OC(c2ccc(OC(F)(F)F)cc2)=CC1c1ccc([N+](=O)[O-])cc1 (centres unmarked) [Compound 59] | 144 µM (≈ 58.1 µg/mL)
N#CC1=C(N)OC(c2ccc(OC(F)(F)F)cc2)=CC1c1ccc[nH]1 (centres unmarked) [Compound 60] | 16 to 18 µM (≈ 5.56 to 6.25 µg/mL)
NC(=O)c1cnccn1 [Pyrazinamide, reference compound] | ~25 µM (≈ 3.08 µg/mL)
[H]/N=C(/N)N[C@H]1[C@H](O)[C@@H](O)[C@H](O[C@@H]2O[C@@H](C)[C@](O)(C=O)[C@H]2O[C@@H]2O[C@@H](CO)[C@H](O)[C@@H](O)[C@@H]2NC)[C@@H](N/C(N)=N\[H])[C@@H]1O [Streptomycin, reference compound] | ~11 µM (≈ 6.4 µg/mL)

same assay, conditions: Mycobacterium tuberculosis, H37RV, 120 h, read-out: H37RV MIC

Compound | MIC
O=C(/C=C/c1ccco1)c1ccc(C(F)(F)F)cc1 [Compound 7] | 177 µM (≈ 47.1 µg/mL)

same assay, conditions: ratio of MIC, H37RV

Compound | Potency relative to pyrazinamide
N#Cc1c(-c2c[nH]c3ccccc23)cc(-c2ccc(OC(F)(F)F)cc2)nc1N [Compound 40] | 3 fold

test system: not listed separately; assay: MTT cytotoxicity assay; format: cell-based; settings: LO2 normal liver cells, human normal liver cells (L02), mean of three experiments

Compound | IC50
N#Cc1c(-c2c[nH]c3ccccc23)cc(-c2ccc(OC(F)(F)F)cc2)nc1N [Compound 40] | > 70 µg/mL
